The source of these data is patent US8652509B2, “Method of wound hemostasis using liquid gallium nitrate” (priority 2009, dated 2014).

In one test the test system is bleeding time. In words: Bleeding time test, forearm puncture with #11 scalpel blade (Experiment 4). Format: in vivo, human. An excerpt: The bleeding time test measures the function of a number of coagulation pathway parameters, including platelet function, extrinsic coagulation pathway and intrinsic coagulation pathway. Here, in order to better understand the various coagulation pathways that might be impacted by gallium nitrate, a bleeding function experiment was done to see if the gallium nitrate effect worked for patients (e.g. Warfarin or Coumadin™ patients) with a suppressed extrinsic coagulation pathway.
In this experiment, a first subject (Subject 1) was treated with Coumadin™ (Warfarin) to achieve a therapeutic dose with an International Normalized Ratio (INR) of 2.5.
Subject 1: To induce bleeding, the first INR 2.5 subject's mid forearm was punctured with a #11 scalpel blade to a depth of 4 mm. This produced prompt flow of blood in the form of a steady slow blood stream down the subject's forearm. This blood flow was gently wiped with gauze every 30 seconds without applying pressure. Under these control (no gallium nitrate) conditions, the bleeding stopped at 122 seconds.
To investigate the effect of gallium nitrate, a second puncture was then made to the arm of the INR 2.5 subject following the same methods as for the first puncture. However in this portion of the experiment, at 5 seconds after puncture, once blood flow had commenced, a gallium nitrate (14%) solution was applied using a soaked cotton-ball. In contrast to the previous no-gallium control, in this gallium nitrate application experiment, blood flow ceased after only 35 seconds. A small pool of blood stayed about incision site. Thus for an INR 2.5 patient, gallium nitrate reduced bleeding time from a control of 122 seconds to a value of only 35 seconds, which is a very substantial decrease.
Subject 2: A mid forearm puncture was made following the same methods as described above. This first puncture was gently wiped with gauze every 30 seconds without applying pressure. In this no gallium nitrate control condition, bleeding stopped at 268 seconds
To investigate the effect of gallium nitrate, a second puncture was then made following the same methods as for the first puncture. At 5 seconds after puncture, once blood flow had commenced, a gallium nitrate (14%) solution was applied using a soaked cotton-ball. By 77 seconds the flow had ceased and a visible clot had started to form.

In a further test the test system is open wound. Kind of test: Topical application of aqueous gallium nitrate to accidental open bleeding wounds (Experiments 1-3). In kind it is in vivo, human. An excerpt: Unless otherwise specified, all experiments below used an aqueous solution of unbuffered Ga(NO3)3, dissolved in water in the 5% to 15% weight/volume concentration range, specifically as stated. Note that none of these formulations contained citrate.
A first human subject sustained an accidental 1-inch long gash to the index finger, deep enough to extend below the epidermis, but stopping short of the bone. The wound bled profusely and hurt intensely. Subject immediately inserted the finger into a solution of concentrated (non-medical) 14% aqueous gallium nitrate. […] Subject kept the finger in the 14% aqueous gallium nitrate solution for 10 minutes. […] A regular bandage was then applied. Although a wound of this depth would normally require stitches, by the time further medical treatment was sought, stitches were no longer deemed necessary.
A different (second) human subject sustained an accidental 1-inch wide gash to the chin which again penetrated the epidermis, stopped short of the bone, and which bled very profusely. The wound was treated by liberally applying the same type of 14% gallium nitrate solution used in Experiment 1.
A third human subject sustained an accidental 2-inch wide and quite deep gash (penetrating the epidermis, stopping short of the bone) to the top of the forehead, accompanied by profuse bleeding. A less concentrated (7% aqueous gallium nitrate) topical solution was then applied.

Molecules are shown by their SMILES. Entries after “also recorded” stand apart in the source; their conditions may differ.

On to `O=[N+]([O-])[O-].O=[N+]([O-])[O-].O=[N+]([O-])[O-].[Ga+3]` [gallium nitrate], for which the visible clot formation entry in the test on bleeding time (Coumadin treated subject, 14% solution) is listed as “did not form a visible clot”; with bleeding time (non-Coumadin treated subject, 14% solution), “formed a very visible brown clot”. Also, the “bleeding time (blood flow ceased)” value in the test on bleeding time (Subject 1, Coumadin (Warfarin) treated, INR 2.5, 14% solution applied with soaked cotton-ball 5 seconds after puncture) worked out at 35 s. In the test on bleeding time (Subject 2, non-Coumadin treated, 14% solution applied with soaked cotton-ball 5 seconds after puncture), the “bleeding time (flow ceased)” value came out at 77 s. The “reduction of bleeding time compared to no-gallium nitrate control” value in the test with bleeding time (both the Warfarin/Coumadin treated and the non-treated subject, 14% solution) is listed as “approximately 75%”. Also, in the test on open wound (Experiment 1: 14% aqueous gallium nitrate, finger gash, regular bandage afterwards), the wound healing entry is on record as “healed completely within a matter of days”. In addition, the pain entry in the test with open wound (Experiment 1: 14% aqueous gallium nitrate, finger kept in solution for 10 minutes) is listed as “near immediate reduction in pain; also recorded: no pain was felt”. Also, the bleeding stopped entry is reported as “stopped within a few seconds” in the test with open wound (Experiment 1: first human subject, 1-inch gash to index finger, finger inserted into 14% aqueous gallium nitrate, no citrate); “rapidly stopped bleeding” in the test with open wound (Experiment 2: second human subject, 1-inch gash to chin, 14% gallium nitrate solution liberally applied); “stopped bleeding unusually quickly” in the test on open wound (Experiment 3: third human subject, 2-inch deep gash to forehead, 7% aqueous gallium nitrate topical). Also, the resulting clot in the test on open wound (Experiment 2: 14% gallium nitrate solution, chin gash, examined by treating physician shortly thereafter) is reported as “unusual strength”. The clot formation result in the test with open wound (summary of the accidental event: aqueous 14% gallium nitrate on a large open wound immediately after wound formation) is “unexpectedly rapid clot formation”.
